{"source": "patent US7569526B2", "about": "“Anti-oxidants in soluble oil base for metal working fluids” (Crompton Corporation, priority 2003, dated 2009)", "key": {"[1]": {"test": "Modified ASTM D3946 bottle test, sediment and pH (Examples 25-34)", "type": "physicochemical", "settings": "25° C.; filtered at end of test", "protocol": "(§1) A modified ASTM D3946 method was run according to the following procedure:\n(§2) 1. A 1-quart straight side jar was filled with 500 mL of emulsion. (Note: the straight sides of the jar allow culture plates to be immersed in the emulsion in situ. No steel chips were added.)\n(§3) 2. While immersed in a 25° C. water bath, the jars were sparged with air using a disposable pipette at a flow rate of approximately 500 mL/min. (Note: this may need to be adjusted depending on the air supply and the amount of foaming observed).\n(§4) 3. The pH was measured using standard pH paper or pH meter and bacteria/fungus counts were measured at one and two week intervals using culture plates (SaniCheck BF culture plates from Biosan Laboratories, Inc. were use in this study, but there are many suppliers available). Although the manufacturers protocol called for incubation between 24 and 36 hours, the bacteria counts were measured after 24, 30, and 48-hour incubations at 28° C. The bacterial onset was measured as the number of weeks necessary to observe at least a 10^3 bacteria count/mL on the culture plate (threshold value of this type of plate). Optionally, the average bacterial count can be calculated over the length of the test period.\n4. At the end of the test, the solutions were filtered through medium filter paper (Whatman #2) and the amount of sediment recovered was weighed.\n(§5) 5. Unless noted above, the other test details are identical to ASTM D3946.\nIn this case, after 22 weeks the pH broke and dropped from 9.0 to 7.0. In all other samples, the pH was measured between 8.5 and 9.0, without significant change over the test period."}, "bacteria": {"tested_on": "bacteria", "test": "Modified ASTM D3946 bottle test, bacteria count and onset (Examples 25-34)", "type": "cell-based", "settings": "30 hours of incubation", "protocol": "as §1, §2, §3, §4, §5\nThe biological activity was evaluated using a Sanicheck BF Conversion Chart. […]"}, "[2]": {"test": "RBOT, standard ASTM D2272 (150 C.), bomb life", "type": "physicochemical", "source_text": "(§6) The antioxidants used in this study were received from internal and external commercial sources without alteration. The sample of butylated DPA was from a preparation of Naugalube 640 in which the sample was enriched in butylated DPA.\nThe ASTM D2272 method was run according to the standard procedure using a 10/90 (oil/water) emulsion as a test sample."}, "[3]": {"test": "TOST, standard ASTM D943 (95° C.), acid number", "type": "physicochemical", "settings": "0.5% Triadine-3 in Hyprene H100; two separate runs; baseline", "source_text": "as §6\nCombining the results of Examples 11-24 with those of Examples 1-10, the synergies involved in the oxidation testing used can be seen. […] Hyprene H100 is a 100 SUS naphthenic oil. Although there is a large variation in the baseline, the general antioxidant chemistry trends (phenolic vs. aminic) were consistent."}, "[4]": {"test": "Modified ASTM D2272 (150 C.), constant time", "type": "physicochemical", "settings": "after oxidation", "protocol": "1. Charge the vessel with 50 grams of the emulsion sample provided.\n3. Unless noted above, the other test details are identical to ASTM D2272.\nWith the success of the 95° C. modified ASTM, thermal breakdown for the metalworking fluids at even higher temperature was tested. The test chosen was a modified ASTM D2272 (RBOT) which is run at 150° C. in a sealed bomb, which should provide sufficient stress to provide significant oxidative breakdown of the metalworking fluid. The test was modified so that after the inhibited sample had reduced pressure by 175 psi, all of the oxidations were stopped so that the time of the oxidation would be a constant (typically the test is run to a constant pressure drop value and the time is allowed to vary). […] Additionally, the pH of all samples dropped from the initial 9.0 to 3.0, with the exception of the sample of Naugalube 640, which dropped to 7.0."}, "[5]": {"test": "Modified ASTM D943 oxidation (95 C.), constant time", "type": "physicochemical", "settings": "aging time 312 hrs", "protocol": "1. Fill the oxidation test tube with 300 ml of the emulsion sample provided.\n2. When the first sample containing no antioxidant or biocide reaches a TAN (total acid number) of 2.0 mg/g KOH, stop all of the oxidations at that same time and measure the TAN. During the course of the testing it may be necessary to add a small amount of defoamer (1 drop of Foam Ban MS-575 from Ultra Additives) to prevent excessive foaming and loss of sample out of the top of the test apparatus. 3. Unless noted above the other test details are identical to ASTM D943\nAccordingly, additional thermal stress was applied to accentuate differences in antioxidant performance. The test chosen to do this was a modified ASTM D943 run at 95° C., which it was expected would provide some oxidative breakdown of the metalworking fluid. The test was modified so that after the uninhibited sample had reached a TAN value of 2 mg KOH/g all of the oxidations were stopped so that the time of the oxidation would be a constant (typically the test is run to a constant TAN value and the time is allowed to vary)."}}, "note": "Several values for one entry are separate records, joined by “and”; a condition that tells them apart may be missing. Equal values may be shown once."}
{"compound": "CC(C)(C)c1cc(CCC(=O)OCCSCCOC(=O)CCc2cc(C(C)(C)C)c(O)c(C(C)(C)C)c2)cc(C(C)(C)C)c1O", "note": "[AX 15, Thiodiethylene-bis(3,5-di-t-butyl-4-hydroxyhydrocinnamate)]", "values": [{"measurement": "Sediment", "setting": "[1]", "value": "reduced the sediment"}]}
{"compound": "Cc1cc(C(C)(C)C)c(O)c(C(C)(C)C)c1", "note": "[BHT, 2,6-di-t-butyl hydroxytoluene]", "values": [{"measurement": "synergy of antioxidant and biocide on onset time", "setting": "bacteria", "value": "weakest"}, {"measurement": "Sediment", "setting": "[1]", "value": "antagonistically increased the sediment in combination with biocide"}]}
{"compound": "OCCN1CN(CCO)CN(CCO)C1", "note": "[Triadine 3, 1,3,5-tris(hydroxyethyl)-s-triazine]", "values": [{"measurement": "Bomb Life", "setting": "[2]; 0.5% Triadine-3 in Hyprene H100, two separate runs, baseline", "value": "35 min and 37 min"}, {"measurement": "Oxidation Lifetime", "setting": "[3]", "value": "492 h and 836 h"}]}
{"compound": "butylated octylated diphenylamine [Naugalube 640]", "values": [{"measurement": "Bomb Life (min)", "setting": "[2]; 150 C., Table 1 blends", "value": "terminated before a break point was ever observed"}, {"measurement": "Cream (%)", "setting": "[4]", "value": "< 1.0", "unit": "%"}, {"measurement": "pH", "setting": "[4]; initial 9.0", "value": 7.0}, {"measurement": "synergy of antioxidant and biocide on onset time", "setting": "bacteria", "value": "strongest"}, {"measurement": "Sediment", "setting": "[1]", "value": "reduced the sediment"}]}
{"compound": "butylated octylated diphenylamine [butylated DPA]", "values": [{"measurement": "Sediment", "setting": "[1]", "value": "reduced the sediment"}]}
{"compound": "mono-, di-, and tri-, nonylated diphenylamine [Naugalube 438L]", "values": [{"measurement": "Cream (%)", "setting": "[5]", "value": "no significant cream"}]}
{"compound": "octylated phenyl-α-naphthylamine [Naugalube APAN]", "values": [{"measurement": "Cream (%)", "setting": "[5]", "value": "no significant cream"}]}
